According to US10927136B2, “Phosphorus prodrugs of pyrazolo-substituted pyrimidine sGC stimulators” (Cyclerion Therapeutics, Inc., priority 2016, dated 2021):

Key:
[1] = target: T1, HEK (Homo sapiens, UniProt Q02108+Q02153); test: HEK EC50 quoted in rat PO PK table (assay version not stated); type: cell-based; conditions: listed in rat PO PK table for Intermediate 3
T1 construct: sGC enzyme activity values in HEK cells; endogenous in cells; host or cells: HEK cells
T1 sequence (Q02153 1-619): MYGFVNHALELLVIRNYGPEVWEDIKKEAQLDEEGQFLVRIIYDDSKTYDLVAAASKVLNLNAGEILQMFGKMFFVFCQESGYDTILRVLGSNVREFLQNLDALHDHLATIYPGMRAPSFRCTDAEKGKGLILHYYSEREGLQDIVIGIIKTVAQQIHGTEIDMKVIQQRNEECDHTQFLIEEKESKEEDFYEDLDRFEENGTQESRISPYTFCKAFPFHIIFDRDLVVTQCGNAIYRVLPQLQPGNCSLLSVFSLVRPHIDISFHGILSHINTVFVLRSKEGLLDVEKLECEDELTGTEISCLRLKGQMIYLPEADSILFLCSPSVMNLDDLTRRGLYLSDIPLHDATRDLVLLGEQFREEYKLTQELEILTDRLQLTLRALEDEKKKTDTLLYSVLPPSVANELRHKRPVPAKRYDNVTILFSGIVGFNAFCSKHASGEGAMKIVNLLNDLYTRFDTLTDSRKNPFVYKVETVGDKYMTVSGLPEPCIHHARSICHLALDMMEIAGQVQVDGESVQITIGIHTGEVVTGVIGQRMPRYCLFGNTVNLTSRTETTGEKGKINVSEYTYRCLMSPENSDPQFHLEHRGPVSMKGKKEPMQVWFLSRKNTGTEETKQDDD
T1 sequence (Q02108 1-690): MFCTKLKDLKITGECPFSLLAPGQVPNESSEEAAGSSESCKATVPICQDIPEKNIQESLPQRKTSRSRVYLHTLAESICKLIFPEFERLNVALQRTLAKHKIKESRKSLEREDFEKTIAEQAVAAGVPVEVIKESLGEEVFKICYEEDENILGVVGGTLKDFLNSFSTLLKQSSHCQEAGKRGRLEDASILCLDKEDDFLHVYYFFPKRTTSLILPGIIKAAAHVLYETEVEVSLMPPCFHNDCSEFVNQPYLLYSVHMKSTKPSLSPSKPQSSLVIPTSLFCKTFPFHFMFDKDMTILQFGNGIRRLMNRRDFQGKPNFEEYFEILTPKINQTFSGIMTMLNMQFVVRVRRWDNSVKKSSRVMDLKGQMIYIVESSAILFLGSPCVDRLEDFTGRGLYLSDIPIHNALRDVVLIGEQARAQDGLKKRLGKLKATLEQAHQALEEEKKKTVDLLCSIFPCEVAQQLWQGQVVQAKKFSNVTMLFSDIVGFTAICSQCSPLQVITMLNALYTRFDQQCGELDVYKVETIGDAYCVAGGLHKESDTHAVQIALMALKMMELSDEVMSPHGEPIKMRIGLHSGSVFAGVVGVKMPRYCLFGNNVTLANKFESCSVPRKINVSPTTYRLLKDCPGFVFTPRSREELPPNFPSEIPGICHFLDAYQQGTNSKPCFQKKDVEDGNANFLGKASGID

[2] = Rat PK following intravenous and oral dosing; type: in vivo, male Sprague-Dawley rats
Method: PK in rats was determined following intravenous and oral dosing.
For the intravenous (IV) and oral (PO) experiments, two groups of 4 male Sprague-Dawley rats each were used. The PO group was dosed with 3.0 mg/kg of Compound I-1 formulated as a solution in phosphate buffered saline (PBS). The IV group was dosed with 1.0 mg/kg of Compound I-1 formulated as a solution in phosphate buffered saline (PBS). IV doses were administered through an indwelling catheter in the jugular vein. Following dose administration, the catheter was flushed with ca. 0.25 mL of saline. PO doses were delivered to the stomach using a syringe and gavage tube. Following oral dosage administration, the gavage tube was flushed with approximately 0.5 mL of water to ensure complete delivery of the full dose.
Plasma samples were collected as follows: for the IV and PO experiments, samples were collected at 5 min, 15 min, 30 min, 1 hour, 2 hours, 4 hours, 6 hours, 8 hours, 12 hours, 16 hours, 20 hours and 24 hours, post-dosing. Blood samples (0.25 mL) were collected from the jugular vein. These samples were kept on ice until processed for plasma. Blood samples were centrifuged at 3200 rpm for 5 minutes at approximately 5° C. within 1 hour of collection. Plasma was directly transferred to a 96-well plate tube (0.125 mL). Plug caps were placed on the tubes and the tubes frozen at approximately −70° C. and stored until analysis.
Plasma was collected and analyzed for the presence of Compound I-1 and Intermediate 3 derived from Compound I-1.
Intermediate 3, Compound I-1 and the internal standard (IS, Compound Z) were extracted from plasma by precipitation. Samples were analyzed using liquid chromatography (LC) with tandem mass spectrometric detection (MS/MS) using electrospray ionization. The standard curve range was from 0.1 to 400 ng/mL.
Thawed plasma samples and the required amount of plasma for standards, blanks and dilutions. Prepared crash solution: room temp ACN containing 1 ng/mL Compound Z as Internal Standard. Created a 1× mixed (Intermediate 3 and Compound I-1) standard curve by diluting the 100× stocks (5 uL of each 100× standard into 495 uL of plasma). Transferred 50 uL of each plasma sample/dilution, standard, or blank. Added 200 uL of the crash solution containing IS. Vortexed for 5 minutes. Centrifuged at 16,000 g at room temperature for 10 min. Transferred 200 uL of each supernatant to a plate. Dried under nitrogen in a TurboVap at 55° C. Re-suspended each sample in 50 uL of 0.1% Formic Acid, covered and vortexed. Analyzed by LC-MSMS.

[3] = male, Sprague-Dawley, plasma, Compound I-1 1 mg/kg IV in PBS, analyte Compound I-1

Row | Compound | EC50 [1] [nM] | prodrug in plasma samples ([2]; following PO dosing of Compound I-1 3.0 mg/kg) | AUC(0-inf) [2, 3] [ng·h/mL] | Cmax [2, 3] [ng/mL] | clearance [2, 3] [mL/min/kg] | half-life ([2]; male, Sprague-Dawley, plasma, iv, 1 mg/kg, Compound I-1 1 mg/kg IV in PBS, analyte Compound I-1) [min]
1 | OC(CNc1nc(-c2cc(-c3ccon3)n(Cc3ccccc3F)n2)ncc1F)(C(F)(F)F)C(F)(F)F [Intermediate 3] | 100 | – | – | – | – | –
2 | O=P(O)(O)OC(CNc1nc(-c2cc(-c3ccon3)n(Cc3ccccc3F)n2)ncc1F)(C(F)(F)F)C(F)(F)F [Compound I-1] | – | not observed in any plasma samples | 549 | 2780 ± 2450 | 34.3 | ~9
